What was measured:
colorectal cells = conditions: previously reported; cited from earlier work
[1] = human subjects given analgesic doses of aspirin; cited from earlier work
SW480 cell line = test: MTT in vitro cytotoxicity assay on SW480 cells; type: cell-based
Experimental: The MTT assay was utilised with a 24 hour incubation period of cell exposure to the compound. […] Experiments were carried out in triplicate; error bars indicate standard deviation.
The carrier molecule utilised (DMSO) in these experiments to prepare stock solutions was buffered with Tris-HCl buffer pH8.0 (0.5M) to mitigate against any pH changes caused by the addition of compounds to cell culture medium. All data shown were normalised to cells exposed only to buffered carrier molecule.
The result shown is the average of three independent experiments (error bars indicate mean+/−SEM). For comparative purposes, compound toxicity is shown alongside the equivalent concentration of salicylic acid (SA) and aspirin (as tested using the MTT assay with a 72 hour incubation of SW480 cells with compound). The carrier molecule utilised in these experiments was DMSO (dimethyl sulphoxide); all data shown were normalised to cells exposed only to carrier molecule.

[2] = test system: SW480 colon carcinoma cell line, HCT-116 colon cancer cell line, MDA-231MB breast cancer cell line; test: MTT titration assay (cell viability, 24 hours) on colon versus breast cancer cell lines; type: cell-based
Experimental: In the examples, assays mentioned are standard cytotoxicity assays and cell cultures used are prepared under standard conditions. The MTT assay referred to is MTT [3-(4,5-Dimethylthiazol-2-yl)-2,5-diphenyltetrazolium-bromide] assay (Mosmann T; J Immunol Methods 65: 55-63, 1983).
In FIG. 2, the in vitro toxicity of BCS, compound 508 of table 1, was investigated in further detail by titration against the SW480 colon carcinoma cell line and the DNA mismatch repair deficient HCT-116 colon cancer cell line and the MDA-231MB breast cancer cell line again utilising the MTT assay as described previously. The concentration-effect relationship for the three different cells lines is given in FIG. 2 (error bars indicate mean+/−S.D.). All experiments were performed in triplicate. For clarity, carrier molecule (DMSO) toxicity of the equivalent concentration utilised is also shown.

MAC13 tumour = test: Tumour volume in MAC 13 tumour bearing mice; type: in vivo; conditions: MAC13 tumour bearing NMRI mice, 1 mg/kg dissolved in PBS (FIG. 7)
Experimental: NMRI mice were treated with MAC13 cells (5×10^6) sub cut in their flanks (Hussey H J, Bibby […]; British J. of Cancer, 73, 1187-1192, 1996), were treated with example compounds. Once the tumour was established the tumour was dissected and small fragments re-transplanted into more mice. […] The mice were monitored daily-weight, food and water consumption and tumour size was recorded using calipers. The experiment ended when the control mouse tumours started to ulcerate.

Compound	toxicity to colorectal cells in vitro (colorectal cells)	salicylate levels achievable in serum [1] [mM]	toxicity in comparison to aspirin (SW480 cell line; MTT assay, equivalent concentration of aspirin (FIG. 3, 48 hour incubation))	specificity against the cell line derived from a colon cancer (SW480 cell line; SW480 versus MCF-7 and U373MG (FIG. 1), MTT)	specific toxicity to colorectal cancer cells ([2]; MTT titration, 24 hours, SW480, HCT-116 versus MDA-231MB)	selectivity for SW480 compared with MDA-231-MB cells ([2]; cell viability assay, colon carcinoma versus breast cancer-derived cell line)	tumour growth (MAC13 tumour)
CC(=O)Oc1ccccc1C(=O)O [Aspirin, acetylsalicylic acid]	exhibit toxicity	> 1	–	–	–	–	–
O=C(CCC(=O)Oc1ccccc1C(=O)O)Oc1ccccc1C(=O)O [Compound 508, bis(2-carboxyphenyl) succinate]	–	–	more toxic in comparison to aspirin	retains a degree of specificity	specifically toxic to colorectal cancer cells	significantly more toxic to SW480 colorectal cancer cells than to MDA-231-MB cells	decrease in tumour growth
O=C(/C=C/C(=O)Oc1ccccc1C(=O)O)Oc1ccccc1C(=O)O [Compound 517, fumaroyldiaspirin]	–	–	–	–	–	–	decrease in tumour growth

Reference: patent US9351980B2, “Di-aspirin derivatives” (The University of Wolverhampton, priority 2010, dated 2016)
